Laboratory results as given in patent US6806359B1, “Hormone receptor compositions and methods” (The Salk Institute for Biological Studies, priority 1986, dated 2004).

Columns and labels:
hGR [1] = assay: hGR functional assay: CAT activity in CV-1 cells cotransfected with pRShGR alpha (or mutant) and pMTVCAT; type: cell-based, human; conditions: percentage of wild-type hGR activity; CV-1 cells cultured 2 days with 10 nM DEX
Description: The assay system and strategy used to study the expression of functional hGR from the cloned cDNA (See Experimental Section I) is shown in FIG. 11. In these experiments, a glucocorticoid-responsive promoter/enhancer element linked to a reporter gene was introduced into a receptor-negative cell. […] For our assay, we chose to use the MTV LTR fused to the sequence coding for chloramphenicol acetyltransferase (CAT) (EC2.3.1.28). […] Cotransfection of pMTVCAT (or pGMCAT) with a receptor expression plasmid provides functional receptors that allow induction of CAT activity upon treatment of the transfected cells with glucocorticoid hormone. In addition, biochemical studies such as steroid binding activity and Western blot analysis of the expressed receptors can be performed simultaneously.
(§1) The cells are then cultured in the presence or absence of hormone. CV-1 cells were used to monitor induction of CAT activity, and COS cells were used to measure steroid-binding capacity and the expression of hGR protein.
CAT assays were performed as indicated in Experimental Procedures (See Section II. F.). C, chloramphenicol; AC, 3-acetylchloramphenicol.
The levels of CAT activity were plotted as percentages of the maximal response observe in a particular experiment.
Each plasmid preparation used for transfection was purified using two consecutive CsCl-EtBr equilibrium gradients. […]

hGR [2] = assay: Steroid binding assay ([^3H]DEX) in cytosol of COS cells transfected with hGR or mutants; set-up: species or system human; conditions: steroid-binding capacity as percentage of wild-type hGR
Description: as §1
COS cells were lysed in hypotonic buffer containing 10 mM Tris-HCl (pH 7.5), 10 mM NaCl, 1 mM EDTA, 5 micrograms/ml antipain, 5 micrograms/ml leupeptin, and 0.5 mM PMSF by Dounce homogenization and centrifuged 10 min. at 15,000×g to yield the cytosolic fraction. Incubations were performed in hypotonic buffer adjusted to 100 mM NaCl and contained 100 micrograms of protein from the cytosolic fraction and 2×10^−8[^3H]DEX (Amersham, 95 Ci/mmol) in total volume of 200 microliters. Nonspecific binding was measured by the addition of 2×10^−6 unlabeled DEX. Reactions were carried out at 0° C. for 2 hr., followed by a 5 min. incubation with 20 microliters of 50% dextran-coated charcoal (10:1 activated charcoal:dextran) and centrifugation at 15,000×g for 2 min. at 4° C. Supernatants were counted by liquid scintillation methods in a Beckman LS-7800 liquid scintillation spectrophotometer. Each assay usually gave 2500-3000 cpm [^3H] labeled steroid; unlabeled DEX competed for 70% of this binding.

[3] = test system: rat GH 5′-flanking sequences in rat pituitary GC2 cells; assay: T3 responsiveness of rat GH 5′-flanking sequence-CAT gene fusions transfected into GC2 cells; type: cell-based; conditions: for stimulation of CAT activity: GH −235 to −45 fused to tk promoter
Description: […]. To overcome this problem, a rat prolactin enhancer element^11 was fused proximal to fragments of the rat GH gene containing 181 and 110 bp of 5′ flanking information. […].
To assay 3′ deletions, fragments of the rat Gh gene were fused to the herpes simplex virus thymidine kinase (HSV tk) promoter. A fragment of the Gh gene extending from position −235 to position −45 from the CAP site produced 2.5-and 2.3-fold stimulations of CAT activity when fused to the tk promoter in native and inverse orientation, respectively (FIG. 57). […]. […].
Thyroid hormone responsiveness of various gene fusions containing rat GH 5′-flanking sequences. FIG. 56, Responsiveness of 5′ and 3′ deletions of the rat GH gene. 5′-deleted fragments of the rat GH gene were fused to the CAT gene in a pSV2CAT-based vector^18, in which the SV40 origin of replication and promoter were removed. […]. The illustrated 3′-deleted fragments were fused to a tk promoter fragment, extending from position −197 to position +54 and placed proximal to the CAT gene in the same vector. […]. Error limits represent the standard error of the mean. Each construction was assayed two to five times. An represents SV40 polyadenylation sites. FIG. 58, Messenger RNA transcription initiation site analysis. The diagram indicates the […] primer complimentary to nucleotides 67 to 89 of the CAT coding sequence used to determine the CAP site of transcripts of plasmids containing the tk promoter. GC cells were transfected with test plasmids and hormone treated as described for the experiments presented in panels a and b. Primer extension analysis was performed on 50 micrograms total RNA. Lanes A and B represent the extension product from cells transfected with a plasmid containing the GH fragment extending from positions 235 to 45 from the CAP site fused to the tk promoter. Lanes C and D represent the extension product from cells transfected with a plasmid containing the tk promoter alone. No extension products were observed. […].
Fusions containing the rat prolactin enhancer were made by excising this fragment (corresponding to rat prolactin sequence nucleotide positions 1831-1530) from plasmid pPSS^11 and inserting it in reverse orientation proximal to the 5′ deletions of the growth hormone element. Fusions containing the HSV tk promoter were made by excising fragments of the GH enhancer from the plasmid GPO (ref. 11) and inserting them into the BamHI and SalI sites of a pSV2CAT-based expression vectors proximal to the tk promoter at positions −197 to +54. Alternatively, the GH enhancer was placed proximal to the promoter at positions −107 to +54 in a pUC8-based vector^20 by insertion into the BamHI and SalI polylinker sites. Site-directed mutagenesis of the GH enhancer element was performed by inserting the fragment from 235-45 bp from the CAP site into the BamHI and SalI sites of M13 mp18. A 21-base oligonucleotide was synthesized which corresponded to antisense GH nucleotides −188 to −157, in which nucleotides −177 to −166 were deleted and replaced by an A nucleotide. This oligonucleotide was used to delete bases −177 to −166 in the GH enhancer using the procedure of Kunkel^21. CAT activity was determined by radioassay of methylated chloramphenicol derivatives after thin layer chromatography^19. Primer extension was by the method of Elsholtz, et al.^12

[4] = test system: rat GH 5′-flanking sequences in rat pituitary GC2 cells; assay: as above; type: cell-based; conditions: 5′ deletion to −107 with rat prolactin enhancer

Compound	CAT Activity (%) (hGR [1])	DEX Binding (%) (hGR [2])	regulation of CAT expression by T3 ([3]; 5′ deletion to −235 of rat GH gene fused to CAT) [fold]	induction of CAT expression by T3 ([3]; 5′-deleted fragment to −181 with rat prolactin enhancer) [fold]	increase of correctly initiated CAT mRNA (primer extension) ([3]; 235-45 bp GH fragment fused to tk promoter, 10^−9M T3)	stimulation of CAT activity ([3]; inverse orientation) [fold]	stimulation of CAT activity ([3]; native orientation) [fold]	stimulation of CAT expression ([3]; construction G29TK) [fold]	stimulation of CAT expression (in words) ([3]; construction G293TK, three tandem repeats)	effect on CAT expression (in words) ([3]; mutant G delta 166/177 fused to tk promoter)	stimulation of CAT expression (in words) ([3]; wild-type GH enhancer fused to tk promoter)	T3 regulation of CAT expression (in words) [4]
hGR alpha: wild-type human glucocorticoid receptor, alpha form, 777 amino acids	100	100										
N[C@@H](Cc1cc(I)c(Oc2ccc(O)c(I)c2)c(I)c1)C(=O)O [T3, 3,5,3′-triiodo-L-thyronine]			4.6	2.6	about 4 fold	2.3	2.5	2.9	five-fold	no effect	ninefold	abolished T3 regulation
